Measurements: PubChem BioAssay AID1259411 (Chemical Carcinogenesis Research Information System (CCRIS), 2018)
Active and inactive are the calls of the source. No rule for the calls is given here.

Tested on: rodent carcinogenicity bioassays, tumor incidence
Experiment: CCRIS carcinogenicity studies
Method in brief: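 Archive of carcinogenicity, mutagenicity, tumor promotion and tumor inhibition results drawn from journals, NCI reports and other sources, expert-reviewed; covers 1985-2011 and is no longer updated.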

With `c1ccc2c(c1)cc1ccc3cccc4ccc2c1c34` the carcinogen call (Species: MOUSE, Strain/Sex: SWISS/FEMALE, Route: DERMAL, Dose: 0, 2.2, 6.6, 20 NMOL IN 50 µL ACETONE 2/WK FOR 48 WK (STUDY DURATION: 61 WK), Dose: 0, 2.2, 6.6, 20 NMOL IN 50 µL ACETONE 2/WK FOR 48 WK (STUDY DURATION: 61 WK), Tumor Site: Type of Lesion: SKIN: PAPILLOMA, SKIN: SQUAMOUS CELL CARCINOMA) was “active; positive”, the carcinogen call (Species: MOUSE, Strain/Sex: SWISS/FEMALE, Route: DERMAL, Dose: 0, 22.2, 66.6, 200 NMOL IN 50 µL ACETONE 2/WK FOR 48 WK (STUDY DURATION: 61 WK), Dose: 0, 22.2, 66.6, 200 NMOL IN 50 µL ACETONE 2/WK FOR 48 WK (STUDY DURATION: 61 WK), Tumor Site: Type of Lesion: SKIN: SQUAMOUS CELL CARCINOMA) was “active; positive” and the carcinogen call (Species: MOUSE, Strain/Sex: SWISS/FEMALE, Route: DERMAL, Dose: 0.01-0.5%, 3/WK, Tumor Site: Type of Lesion: INTEGUMENTARY SYSTEM (SKIN): CARCINOMA, PAPILLOMA) was “active; positive”. For the same compound, the carcinogen call (Species: MOUSE, Strain/Sex: SWISS/FEMALE, Route: DERMAL, Dose: 0.1-9 UG, 3/WK FOR < 700 D, Tumor Site: Type of Lesion: INTEGUMENTARY SYSTEM (SKIN)) was “active; positive”, the carcinogen call (Species: MOUSE, Strain/Sex: WILDTYPE/MALE, Route: GAVAGE, Dose: 0, 13, 39 MG/KG BW IN 0.1 ML SOY OIL 3/WK FOR 13 WK (STUDY DURATION: 291 D), Dose: 0, 13, 39 MG/KG BW IN 0.1 ML SOY OIL 3/WK FOR 13 WK (STUDY DURATION: 291 D), Tumor Site: Type of Lesion: LYMPHATIC SYSTEM: LYMPHOMA, FORESTOMACH: TUMOR) was “active; positive” and the carcinogen call (Species: Mouse, Strain/Sex: 129 x MF1 Gstp-null (14-15 males and females), Route: Intraperitoneal, Dose: 200 mg/kg, once, study duration 5 mo, Tumor Site: Type of Lesion: Lung: adenoma (incidence 71% vs 27% in controls, multiplicity 3.0 vs 0.3 in controls)) was “inactive; negative”. For the same compound, the carcinogen call (Species: Mouse, Strain/Sex: 129 x MF1 wild type (14-16 males and females), Route: Intraperitoneal, Dose: 200 mg/kg, once, study duration 5 mo, Tumor Site: Type of Lesion: Lung: adenoma (incidence 29% vs 25% in controls, multiplicity 0.4 vs 0.3 in controls)) was “inactive; negative”, the carcinogen call (Species: RABBIT, Route: DERMAL, Dose: 0.001-0.5%, 5/WK, Tumor Site: Type of Lesion: INTEGUMENTARY SYSTEM (SKIN)) was “active; positive” and the carcinogen call (Species: RABBIT, Route: DERMAL, Tumor Site: Type of Lesion: INTEGUMENTARY SYSTEM (SKIN): PAPILLOMA, CARCINOMA) was “active; positive”. For the same compound, the carcinogen call (Species: RAT, Route: INTRATRACHEAL, Dose: 0.0005-2.5 MG, 1/MO FOR 10 MO, OBSERVED 2 YR, Tumor Site: Type of Lesion: LUNG) was “active; positive”, the carcinogen call (Species: RAT, Route: SUBCUTANEOUS, Dose: 0.05, 0.1, 0.5, 1.0 MG, SINGLE DOSE, Tumor Site: Type of Lesion: INJECTION SITE) was “active; positive” and the carcinogen call (Species: RAT, Route: SUBCUTANEOUS, Tumor Site: Type of Lesion: INJECTION SITE) was “active; positive”. For the same compound, the carcinogen call (Species: RAT, Strain/Sex: F344/MALE, Route: LUNG IMPLANT, Dose: 0, 50, 100, 200 UG IN BEESWAX/TRICAPRYLIN INTO LEFT LUNG ONCE (STUDY DURATION: 100 WK), Dose: 0, 50, 100, 200 UG IN BEESWAX/TRICAPRYLIN INTO LEFT LUNG ONCE (STUDY DURATION: 100 WK), Tumor Site: Type of Lesion: LUNG: SQUAMOUS CELL CARCINOMA) was “active; positive”, the carcinogen call (Species: RAT, Strain/Sex: F344/MALE, Route: PULMONARY IMPLANT, Dose: 0, 50, 100, 200 UG IN 50 µL BEESWAX/TRICAPRYLIN IMPLANTED FOR UP TO 100 WK (STUDY DURATION: 100 WK), Dose: 0, 50, 100, 200 UG IN 50 µL BEESWAX/TRICAPRYLIN IMPLANTED FOR UP TO 100 WK (STUDY DURATION: 100 WK), Tumor Site: Type of Lesion: LUNG: TUMOR) was “active; positive” and the carcinogen call (Species: RAT, Strain/Sex: F344/MALE, Route: SUBCUTANEOUS IMPLANT, Dose: 0, 8, 40, 200, 1000 UG IN 50 µL BEESWAX/TRICAPRYLIN IMPLANTED FOR UP TO 45 WK (STUDY DURATION: 45 WK), Dose: 0, 8, 40, 200, 1000 UG IN 50 µL BEESWAX/TRICAPRYLIN IMPLANTED FOR UP TO 45 WK (STUDY DURATION: 45 WK), Tumor Site: Type of Lesion: IMPLANT SITE: TUMOR) was “active; positive”. The carcinogen call (Species: RAT, Strain/Sex: OSBORNE-MENDEL/FEMALE, Route: INTRAPULMONARY IMPLANT, Dose: 0, 0.03, 0.1, 0.3 MG IN BEESWAX AND TRIOCTANOIN IMPLANTED IN LUNG (STUDY DURATION: 141 WK), Dose: 0, 0.03, 0.1, 0.3 MG IN BEESWAX AND TRIOCTANOIN IMPLANTED IN LUNG (STUDY DURATION: 141 WK), Tumor Site: Type of Lesion: LUNG: CARCINOMA) was “active; positive”, the carcinogen call (Species: RAT, Strain/Sex: OSBORNE-MENDEL/FEMALE, Route: LUNG IMPLANT, Dose: 0, 0.1, 0.3, 1.0 MG IN BEESWAX/TRIOCTANOIN (STUDY DURATION: LIFETIME), Dose: 0, 0.1, 0.3, 1.0 MG IN BEESWAX/TRIOCTANOIN (STUDY DURATION: LIFETIME), Tumor Site: Type of Lesion: LUNG: EPIDERMOID CARCINOMA, PLEOMORPHIC SARCOMA) was “active; positive” and the carcinogen call (Species: RAT, Strain/Sex: SPRAGUE-DAWLEY/FEMALE, Route: INJECTION, Dose: 0, 0.25, 1 UMOL PER MAMMARY GLAND (STUDY DURATION: 24 WK), Dose: 0, 0.25, 1 UMOL PER MAMMARY GLAND (STUDY DURATION: 24 WK), Tumor Site: Type of Lesion: MAMMARY GLAND: TUMOR) was “active; positive”. The carcinogen call (Species: RAT, Strain/Sex: SPRAGUE-DAWLEY/FEMALE, Route: INTRAVENOUS, Dose: 39 MG/KG, SINGLE DOSE, Tumor Site: Type of Lesion: MAMMARY GLAND: CARCINOMA) was “active; positive”, the carcinogen call (Species: RAT, Strain/Sex: SPRAGUE-DAWLEY/FEMALE, Route: INTRAVENOUS, Tumor Site: Type of Lesion: MAMMARY GLAND: CARCINOMA) was “active; positive” and the carcinogen call (Species: RAT, Strain/Sex: STRAIN-CD/FEMALE, Route: GAVAGE, Dose: 0, 50 UMOL IN 0.5 ML TRIOCTANOIN 1/WK FOR 8 WK (STUDY DURATION: 49 WK), Tumor Site: Type of Lesion: MAMMARY GLAND: FIBROADENOMA, DESMOPLASTIC ADENOMA, ADENOCARCINOMA) was “active; positive”.
